The results in this text go back to PMC9231222 (Viruses, 2022).

What is called EC50 is the concentration that produces a half-maximal response. A word on the CC50: it is the concentration that lowers cell viability or growth by half. By melting point is commonly meant the temperature, or range, at which the solid turns liquid.

“Also recorded” adds a separate entry of the source. Some results are limits rather than exact numbers.

Series [1] has as its system BVDV. The series is described as follows: Antiviral assay: inhibition of BVDV-induced cytopathogenicity in MDBK cells. The note with it: Bovine viral diarrhea virus isolates and strains, in Bos taurus, 72 h, read-out: BVDV EC50. Type of series: cell-based. For orientation: Cytopathic effects are the visible damage that an infection or toxin causes in cultured cells.
A short description of series [2]: Cytotoxicity assay (MTT) in mock-infected MDBK cells. Type of series: cell-based. The note with it: cattle (Bos taurus); concentration reducing viability of mock-infected MDBK cells by 50%, MTT method.
The test system of series [3] is BVDV. As to the kind of experiment: Time of drug addition assay in BVDV-infected MDBK cells (plaque reduction titer). Type of series: cell-based, Bovine Viral Diarrhoea Virus (BVDV). The note with it: along the viral replication cycle (between 2 and 14 h post-infection).
For series [4], the system named is BVDV. It is filed as cell-based, Bovine Viral Diarrhoea Virus (BVDV). Conditions: BVDV incubated with compound at 4 °C for 1 h, then used to infect cells.

For the molecule `COc1cc(C(=O)Nc2ccc(-c3nc4ccccc4[nH]3)cc2)cc(OC)c1OC` [Compound 1c, N-(4-(1H-Benzo[d]imidazol-2-yl)phenyl)-3,4,5-trimethoxybenzamide], the EC50 in the series with BVDV [1] amounted to 2.2 µM. This molecule also gave a CC50 in series [2] of 28.5 µM.

In the case of `O=C(Nc1ccc(-c2nc3ccccc3[nH]2)cc1)c1ccc([N+](=O)[O-])cc1` [Compound 1d, N-(4-(1H-Benzo[d]imidazol-2-yl)phenyl)-4-nitrobenzamide], the melting point was > 300 °C. For the same molecule, the EC50 in the series on BVDV [1] is > 100 µM. In series [2], the CC50 is > 100 µM.

`O=C(Nc1ccc(-c2nc3ccccc3[nH]2)cc1)c1ccc(Cl)cc1` [Compound 1e, N-(4-(1H-Benzo[d]imidazol-2-yl)phenyl)-4-chlorobenzamide]: the melting point worked out at 170.5 °C. For the same molecule, the EC50 in the series on BVDV [1] is > 100 µM. For the same molecule, the CC50 in series [2] is > 100 µM.

For `COc1cc(C(=O)Nc2ccc(-c3nc4cc(Cl)ccc4[nH]3)cc2)cc(OC)c1OC` [Compound 2c, N-(4-(5-Chloro-1H-benzo[d]imidazol-2-yl)phenyl)-3,4,5-trimethoxybenzamide], the melting point was in the range of 286 to 287 °C. The 50% effective concentration (EC50) in the series with BVDV [1] came out at 0.09 µM. For the same molecule, in the series on BVDV [3], the “antiviral activity, time of drug addition” value is “consistent antiviral activity along the viral replication cycle; also recorded: detectable activity”. The molecule further displayed a CC50 in series [2] of 45 µM.

For the molecule `O=C(Nc1ccc(-c2nc3cc(Cl)ccc3[nH]2)cc1)c1ccc([N+](=O)[O-])cc1` [Compound 2d, N-(4-(5-Chloro-1H-benzo[d]imidazol-2-yl)phenyl)-4-nitrobenzamide], the melting point is > 300 °C. For the same molecule, the half-maximal effective concentration (EC50) in the series on BVDV [1] stood at 1.9 µM. For the same molecule, the CC50 in series [2] is > 100 µM.

As for `O=C(Nc1ccc(-c2nc3cc(Cl)ccc3[nH]2)cc1)c1ccc(Cl)cc1` [Compound 2e, N-(4-(5-Chloro-1H-benzo[d]imidazol-2-yl)phenyl)-4-chlorobenzamide], the melting point is > 300 °C. Further, in the series with BVDV [1], the EC50 is > 100 µM. In addition, the CC50 in series [2] was > 100 µM.

Molecule `COc1cc(C(=O)Nc2ccc(-c3nc4cc(Cl)c(Cl)cc4[nH]3)cc2)cc(OC)c1OC` [Compound 3c, N-(4-(5,6-Dichloro-1H-benzo[d]imidazol-2-yl)phenyl)-3,4,5-trimethoxybenzamide] showed a melting point of 150.6 °C. Further, in the series on BVDV [1], the EC50 came out at 1.3 µM. Half-maximal cytotoxicity in series [2] (CC50) was put at 28 µM.

For the molecule `O=C(Nc1ccc(-c2nc3cc(Cl)c(Cl)cc3[nH]2)cc1)c1ccc([N+](=O)[O-])cc1` [Compound 3d, N-(4-(5,6-Dichloro-1H-benzo[d]imidazol-2-yl)phenyl)-4-nitrobenzamide], the melting point is > 300 °C. The half-maximal effective concentration (EC50) with BVDV [1] turned out to be 53 µM. Also, the CC50 in series [2] was > 100 µM.

For the molecule `O=C(Nc1ccc(-c2nc3cc(Cl)c(Cl)cc3[nH]2)cc1)c1ccc(Cl)cc1` [Compound 3e, N-(4-(5,6-Dichloro-1H-benzo[d]imidazol-2-yl)phenyl)-4-chlorobenzamide], the melting point fell in the range of 161 to 162 °C. Besides, the EC50 in the series with BVDV [1] was > 60 µM. Besides, the CC50 in series [2] was determined as 60 µM.

The molecule `COc1cc(C(=O)Nc2ccc(-c3nc4cc(F)ccc4[nH]3)cc2)cc(OC)c1OC` [Compound 4c, N-(4-(5-Fluoro-1H-benzo[d]imidazol-2-yl)phenyl)-3,4,5-trimethoxybenzamide] displayed a melting point of 171.8 °C. For the same molecule, the EC50 in the series on BVDV [1] was determined as 41 µM. The CC50 in series [2] is > 100 µM.

Take `O=C(Nc1ccc(-c2nc3cc(F)ccc3[nH]2)cc1)c1ccc([N+](=O)[O-])cc1` [Compound 4d, N-(4-(5-Fluoro-1H-benzo[d]imidazol-2-yl)phenyl)-4-nitrobenzamide]: the melting point is > 300 °C. The EC50 in the series on BVDV [1] is 7.9 µM. Also, the CC50 in series [2] was > 100 µM.

The molecule `O=C(Nc1ccc(-c2nc3cc(F)ccc3[nH]2)cc1)c1ccc(Cl)cc1` [Compound 4e, N-(4-(5-Fluoro-1H-benzo[d]imidazol-2-yl)phenyl)-4-chlorobenzamide] came in with a melting point of 138.6 °C. Also, the EC50 with BVDV [1] was > 100 µM. In addition, the cytotoxic concentration (CC50) in series [2] is > 100 µM.

Consider `COc1cc(C(=O)Nc2ccc(-c3nc4cc(F)c(F)cc4[nH]3)cc2)cc(OC)c1OC` [Compound 5c, N-(4-(5,6-Difluoro-1H-benzo[d]imidazol-2-yl)phenyl)-3,4,5-trimethoxybenzamide], for which the melting point was in the range of 285 to 287 °C. The EC50 in the series on BVDV [1] stood at 1.4 µM. Besides, in series [2], the CC50 is > 100 µM.

Take `O=C(Nc1ccc(-c2nc3cc(F)c(F)cc3[nH]2)cc1)c1ccc([N+](=O)[O-])cc1` [Compound 5d, N-(4-(5,6-Difluoro-1H-benzo[d]imidazol-2-yl)phenyl)-4-nitrobenzamide]: the melting point was > 300 °C. Moreover, in the series on BVDV [1], the EC50 was 3.6 µM. Moreover, the CC50 in series [2] was > 100 µM.

Turning to `O=C(Nc1ccc(-c2nc3cc(F)c(F)cc3[nH]2)cc1)c1ccc(Cl)cc1` [Compound 5e, N-(4-(5,6-Difluoro-1H-benzo[d]imidazol-2-yl)phenyl)-4-chlorobenzamide], the melting point is > 300 °C. In the series on BVDV [1], the EC50 is > 100 µM. The CC50 in series [2] was > 100 µM.

On to `COc1cc(C(=O)Nc2ccc(-c3nc4cc(C)ccc4[nH]3)cc2)cc(OC)c1OC` [Compound 6c, N-(4-(5-Methyl-1H-benzo[d]imidazol-2-yl)phenyl)-3,4,5-trimethoxybenzamide], for which the virucidal activity entry with BVDV [4] was “almost comparable to the untreated but infected ones”. Besides, in the series with BVDV [1], the EC50 was 0.23 µM. In addition, the CC50 in series [2] is > 100 µM.

`Cc1ccc2nc(-c3ccc(NC(=O)c4ccc([N+](=O)[O-])cc4)cc3)[nH]c2c1` [Compound 6d, N-(4-(5-Methyl-1H-benzo[d]imidazol-2-yl)phenyl)-4-nitrobenzamide]: the EC50 with BVDV [1] is > 100 µM. Further, in series [2], the CC50 is > 100 µM.

`Cc1ccc2[nH]c(-c3ccc(NC(=O)c4ccc(Cl)cc4)cc3)nc2c1` [Compound 6e, N-(4-(5-Methyl-1H-benzo[d]imidazol-2-yl)phenyl)-4-chlorobenzamide]: the melting point is > 300 °C. Also, in the series with BVDV [1], the EC50 is > 100 µM. Further, the CC50 in series [2] was > 100 µM.

The molecule `COc1cc(C(=O)Nc2ccc(-c3nc4cc(C)c(C)cc4[nH]3)cc2)cc(OC)c1OC` [Compound 7c, N-(4-(5,6-Dimethyl-1H-benzo[d]imidazol-2-yl)phenyl)-3,4,5-trimethoxybenzamide] displayed a melting point of 272 to 274 °C. For the same molecule, the virucidal activity result with BVDV [4] is listed as “almost comparable to the untreated but infected ones”. Further, the EC50 in the series with BVDV [1] was 0.3 µM. The CC50 in series [2] was > 100 µM.

For the molecule `Cc1cc2nc(-c3ccc(NC(=O)c4ccc([N+](=O)[O-])cc4)cc3)[nH]c2cc1C` [Compound 7d, N-(4-(5,6-Dimethyl-1H-benzo[d]imidazol-2-yl)phenyl)-4-nitrobenzamide], the melting point is > 300 °C. Further, the EC50 in the series on BVDV [1] is > 100 µM. Moreover, in series [2], the half-maximal cytotoxic concentration (CC50) is > 100 µM.

Take `Cc1cc2nc(-c3ccc(NC(=O)c4ccc(Cl)cc4)cc3)[nH]c2cc1C` [Compound 7e, N-(4-(5,6-Dimethyl-1H-benzo[d]imidazol-2-yl)phenyl)-4-chlorobenzamide]: the melting point was > 300 °C. In addition, the EC50 in the series on BVDV [1] is > 100 µM. Besides, the CC50 in series [2] is > 100 µM.

As for `C[C@@]1(O)[C@H](O)[C@@H](CO)O[C@H]1n1cnc2c(=O)[nH]c(N)nc21` [NM 108, 2′-C-methylguanosine, reference compound], in the series with BVDV [1], the EC50 worked out at 1.5 µM. Moreover, in series [2], the CC50 was > 100 µM.

Regarding `NC(=O)c1ncn([C@@H]2O[C@H](CO)[C@@H](O)[C@H]2O)n1` [Ribavirin, ribavirin, reference compound], the EC50 with BVDV [1] amounted to 18 µM. The CC50 in series [2] is > 100 µM.
